Experiment: gradient 5% acetonitrile 3 min, to 50% in 2 min, to 85% in 15 min, held 3 min, 100 µL/min
Conditions: column: Zorbax Extend-C18 2.1 x 50 mm; eluents: water / acetonitrile, 0.1% formic acid
Method in brief: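 Using water and acetonitrile that each contained 0.1% formic acid, mixtures of ~100 pure standards were separated at 100 μL/min on a Zorbax Extend-C18 column (2.1 × 50 mm, 1.8 μm). The HPLC fed a quadrupole time-of-flight mass spectrometer working in positive and negative ionization mode, with dead and dwell volumes of 40 μL and 900 μL. Data were acquired over 3 months. Retention time was read from computationally picked adduct peaks after manual inspection of each.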

SMILES | RP-LC retention time [s]
CCCNc1cc(N2CCCC(CCC(=O)N3CCN(c4ccccc4)CC3)C2)ncn1 (stereo not given) | 719
CCOC(=O)c1ccc(NC(=O)CSc2cc(N3CCCC3)ncn2)cc1 | 828
CCc1ccc(CNC(=O)Cn2c(CC)nc3c(c2=O)CN(Cc2ccccc2)CC3)cc1 | 707
Cc1ccccc1NC(=O)N1CCC(c2nc(C(=O)N3CCOCC3)c(C)o2)CC1 | 673
OCCN(Cc1ccccc1)CC(O)COc1cccc2ccccc12 (stereo not given) | 601
Cc1ccc(C)c(N2CCN(CC(O)c3ccc4c(c3)OCO4)CC2)c1 (stereo not given) | 732
CCCNC(=O)C1CCN(C(=O)CCc2c(C)[nH]c(C(=O)OCC)c2C)CC1 | 679
Cc1ccc2c(c1)NC1(CCN(S(=O)(=O)c3ccccc3F)CC1)c1cccn1-2 | 881
c1ccc(-c2oncc2CN2CCN(c3ccccn3)CC2)cc1 | 603
C=CCSC(CC)(CC)C(N)=O | 805
Cc1nnc2cc(N3CCN(Cc4cn[nH]c4-c4ccccc4)CC3)cnn12 | 556
CC(=O)N1CCc2cc(N3CC(C(=O)NCc4ccc(F)cc4F)CC3=O)ccc21 (stereo not given) | 692
CSc1cnc(Nc2nc(-c3ccc(Br)cc3)cs2)nc1 | 1190
CCN1CCCn2cc(S(=O)(=O)NCc3ccc(Cl)cc3)cc2C1=O | 767
O=C(CN1CCN(Cc2ccc(F)cc2)C1=O)NCc1ccccc1C(F)(F)F | 866
Cc1csc(-c2cc(S(=O)(=O)NC(C)C)cn2CC(=O)N2CCCCC2)n1 | 873
Cc1sc(-c2cc(C(F)(F)F)on2)cc1S(=O)(=O)N1CCCc2ccccc21 | 1300
CCCNC(=O)c1ccc2c(c1)CCCN2S(=O)(=O)CC | 753
O=C(NCCc1c[nH]c2ccccc12)c1cc2cccnc2n(Cc2ccc(F)cc2)c1=O | 1090

SMILES | RP-LC retention time [s]
O=C(NCc1ccco1)C1CC(=O)N(c2ccc3c(c2)CCN3C(=O)C2CC2)C1 (stereo not given) | 687
O=S(=O)(Nc1ccc(Oc2nc3ccccc3n3cnnc23)cc1)c1cccc2nsnc12 | 755
CCN1CCN(c2c(C(=O)c3ccc(C)c(C)c3)cnc3cc(OC)c(OC)cc23)CC1 | 579
CCOC(=O)c1cc(-c2cccc(OC)c2OC)no1 | 896
CCSc1nc2nc3c(cn2n1)C(=O)CCC3 | 723
Cc1nnc(C2CC3(CCN(Cc4ccccc4)CC3)CN2CCc2ccccc2)o1 (stereo not given) | 638
CCC(=O)NCCc1csc(C2CCCN(C(=O)C3(c4ccccc4)CC3)C2)n1 (stereo not given) | 736
CCNc1cc(N2CCC(CCC(=O)NCc3ccc(F)cc3Cl)CC2)ncn1 | 680
CCCCS(=O)(=O)N1CC(c2nc(C)no2)C2(CCOCC2)C1 (stereo not given) | 783
CCN1C(=O)C2(CCN(S(=O)(=O)c3cc(F)ccc3OC)CC2)c2ccccc21 | 1030
Cc1ccc2[nH]cc(CCNC(=O)CC3CCN(C(=O)C4CCCCC4)CC3)c2c1 | 850
CN(C)c1ccc(-c2nc3cnc(Br)cn3c2Nc2ccc3c(c2)OCCO3)cc1 | 881
COC(=O)c1ccc(-c2nc3cnccn3c2NC2CCCCC2)cc1 | 973
Cc1cc(Cl)ccc1NC(=O)Cn1c(C)nc2onc(C)c2c1=O | 818
COCCN1CCC(N2CCCN(C(=O)C3COc4ccccc4O3)CC2)C1=O (stereo not given) | 560
NC(=O)C1(c2ccccc2Cl)CC1 | 692
CC(C)CN1Cc2ccccc2-n2ccnc2C12CCN(C(=O)c1ccoc1)CC2 | 665
CCc1c(C(=O)O)nnn1-c1ccc(Cl)cc1 | 748
CC1(C)Cc2cccc(OCC(=O)Nc3ncc([N+](=O)[O-])s3)c2O1 | 906

SMILES | RP-LC retention time [s]
O=C([C@@H]1C[C@H](F)CN1S(=O)(=O)c1cccc(C(F)(F)F)c1)N1CCCCC1 | 878
CCCC(=O)Nc1ccc2c(c1)N(C(=O)c1cccs1)CCC2 | 801
O=C(CSc1nccn1-c1ccc(Cl)cc1)NCc1ccco1 | 655
COCCNC(=O)N1CCN(Cc2nc3cc(C(=O)N(C)C)ccc3o2)CC1 | 559
CC(C(=O)NCCc1ccccc1)n1cnc2nc(N3CCCCC3)ncc2c1=O (stereo not given) | 810
O=C(c1ccsc1)N1CCCCC1c1nncn1CC1CC1 (stereo not given) | 681
CCN1C(=O)COc2ccc(-c3csc(NC(C)=O)n3)cc21 | 719
CCn1c(=O)n(-c2ccc(F)cc2)c2nc(-c3ccc(F)cc3F)nc(C(N)=O)c21 | 1000
Cc1cnc(C(=O)N2CCC(c3noc(-c4cccnc4)n3)C2)cn1 (stereo not given) | 628
O=S(=O)(c1ccc(Br)cc1)N1CCCC1c1nc(-c2ccc(F)cc2)no1 (stereo not given) | 1160
CCC1Oc2ccc(S(=O)(=O)N3CCC(C(=O)N(C)C4CCCCC4)CC3)cc2NC1=O (stereo not given) | 917
Cc1sc2ccn(C)c(=O)c2c1C(=O)NCc1ccc(Br)cc1 | 811
CN1CCC(NC(=O)C2CCc3sc(C(=O)N4CCCCC4)cc3C2)CC1 (stereo not given) | 587
O=C(CNC(=O)C(c1ccccc1)c1ccccc1)NCC(=O)N1CCCc2ccccc21 | 875
COc1ccc(Cl)c2c(=O)c3c([nH]c12)CCN(CC(=O)NCc1ccccc1F)C3 | 625
Cc1csc(-c2cc(S(=O)(=O)Nc3ccc(F)cc3F)cn2CC(=O)N2CCCC2)n1 | 880
COc1ccc(NC(=O)Cn2c(C)cc(-c3nnc(C4CCC4)o3)c2C)cc1OC | 796
O=C(c1ccoc1)N1CCC(c2cc(-c3ccc(F)cc3)n[nH]2)CC1 | 777

Next, values leading:

RP-LC retention time [s] | SMILES
662 | CN(CCc1ccccn1)c1ccc2c(c1)C(=O)c1ccccc1-2
1010 | Cc1ccccc1CNC(=O)C1(C)CCCN(C(=O)Nc2ccccc2Cl)C1 (stereo not given)
816 | COc1cccc(-c2nc(Cn3c(C)nc4ccccc4c3=O)no2)c1OC
879 | O=C(Cn1ccc2ccc(N3CCOCC3)nc21)N1CCN(c2ccccc2)CC1
1010 | Cc1ccc(Nc2nc(-c3cc(C)c(C)cc3C)cs2)nc1
681 | CC(C)(C)NC(=O)CCc1c(-c2ccc(Br)cc2)nc2ccccn12
754 | Cc1ccc(-n2nc3c(N4CCCC(C(=O)NCc5ccccc5)C4)nnc(C)c3c2C)cc1 (stereo not given)
728 | O=C(NCCc1c[nH]c2ccccc12)c1ccc(N2C(=O)CCS2(=O)=O)cc1
762 | Cc1ccccc1CNC(=O)c1cn2c(n1)CCCC2
1030 | Cc1ccc(NC(=O)N2CCCC2c2nc(-c3cccc(F)c3)no2)c(C)c1 (stereo not given)
655 | CCN1C(=O)c2cccnc2Sc2cc(NC(=O)COC)ccc21
865 | CC1CC(=O)N(CC(=O)Nc2ccc3c(c2)OCO3)c2ccccc2S1 (stereo not given)
623 | NS(=O)(=O)c1ccc(NC(=O)CN2C(=O)c3ccccc3C2=O)cc1
1260 | Cn1c(C(=O)NCc2ccccc2Cl)cc2sc(Cl)cc21
1030 | Cc1cc(NC(=O)c2cc3c(=O)n(CC(C)C)ccc3n2C)ccc1Br
872 | CCOc1ccccc1NC(=O)N1CCC2(CC1)NC(=O)c1cc(C)ccc1N2C
1080 | CC(C)(C)c1ccc2c(c1)N(S(=O)(=O)c1ccccc1)CC(C(=O)NC1CC1)O2 (stereo not given)

RP-LC retention time [s] | SMILES
717 | Cc1ccc2nc(-c3ccccc3)c(Nc3ccc4c(c3)OCO4)n2c1
806 | COCCN1C(=O)CCc2cc(NC(=O)Cc3ccc(Cl)cc3)ccc21
1030 | COc1ccc(NC(=O)N2c3ccccc3CC2c2nc(C3CC3)no2)c(OC)c1 (stereo not given)
744 | Cc1cc(=O)n2nc(-c3ccc(Cl)cc3)nc2n1CC(=O)NC(C)C
860 | Cc1c(Cl)cccc1NC(=O)C(C)C1CCN(C(=O)Nc2ccccc2)CC1 (stereo not given)
820 | CO[C@H]1C(=O)N(C(C)C)[C@H]1C1CCN(C(=O)Nc2ccc(C)c(C)c2)CC1
972 | COc1ccccc1CNC(=O)Cn1c(=O)cc(-c2nc(C(C)C)no2)c2ccccc21
704 | Cc1ccc(N2CC(NC(=O)NCc3cccs3)CC2=O)cc1C (stereo not given)
795 | Cc1ccc(NC(=O)CSc2nc(N3CCCCC3)nc3ccccc23)cc1C
847 | COC(=O)c1cccc(N2C=C(C#N)S(=O)(=O)c3c(F)cccc32)c1
1030 | CCCn1c(=O)sc2cc(S(=O)(=O)N3CCC(C(=O)Nc4ccc(C)c(C)c4)CC3)ccc21
961 | Cc1cc(C(=O)Nc2ccc(C)c(C)c2)n(-c2ccccc2)n1
851 | CC(C)n1c(=O)oc2cc(-c3noc(CNC(=O)c4ccccc4)n3)ccc21
839 | Cc1ccc2[nH]cc(CCNC(=O)Cn3c4ccccc4c4cnn(C)c(=O)c43)c2c1
902 | O=C(Cc1csc2nc(-c3ccccc3)cn12)Nc1ccc(F)c(Cl)c1
1110 | Cc1cc(C)c(-c2csc(NC(=O)c3ccc(S(=O)(=O)N4CCOCC4)cc3)n2)c(C)c1
862 | O=C(Nc1ccccc1)c1cccc(N2CC(C(=O)NC3CCCCCC3)CC2=O)c1 (stereo not given)
